{
  "source": "patent US9468661B2",
  "about": "“Pyrrolidine derivatives and their use as complement pathway modulators” (priority 2012, dated 2016)",
  "data": [
    {"target": "human factor D (Homo sapiens (Human), UniProt P00746)", "sequence (P00746 26-253)": "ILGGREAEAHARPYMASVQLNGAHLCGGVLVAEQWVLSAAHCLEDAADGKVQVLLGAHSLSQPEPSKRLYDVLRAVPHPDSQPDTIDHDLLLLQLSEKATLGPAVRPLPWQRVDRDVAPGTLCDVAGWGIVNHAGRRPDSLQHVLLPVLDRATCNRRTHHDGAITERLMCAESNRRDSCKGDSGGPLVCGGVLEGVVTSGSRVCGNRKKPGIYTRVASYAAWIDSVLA", "test": "biochemical", "format": "biochemical", "details": "Factor D inhibition data using Method 1; recombinant human factor D 10 nM, substrate Z-Lys-thiobenzyl, fluorescence; read-out: IC50", "description": "(§1) Human Complement Factor D Assay: Method 1\n(§2) Recombinant human factor D (expressed in E. coli and purified using standard methods) at 10 nM concentration is incubated with test compound at various concentrations for 1 hour at room temperature in 0.1 M Hepes buffer, pH 7.5, containing 1 mM MgCl2, 1 M NaCl and 0.05% CHAPS. A synthetic substrate Z-Lys-thiobenzyl and 2,4-dinitrobenzenesulfonyl-fluoresceine are added to final concentrations of 200 μM and 25 μM, respectively. The increase in fluorescence is recorded at excitation of 485 nm and emission at 535 nm in a microplate spectrofluorimeter. IC50 values are calculated from percentage of inhibition of complement factor D-activity as a function of test compound concentration.", "units": {"IC50": "nM"}, "values": [
      {"compound": "CC(=O)c1nn(CC(=O)N2[C@@H]3C[C@@H]3C[C@H]2C(=O)NC[C@H]2CC2(Cl)Cl)c2ccc(OCc3cscn3)cc12", "note": "[Example 105, (1R,3S,5R)-2-{2-[3-Acetyl-5-(thiazol-4-ylmethoxy)-indazol-1-yl]-acetyl}-2-aza-bicyclo[3.1.0]hexane-3-carboxylic acid ((R)-2,2-dichloro-cyclopropylmethyl)-amide]", "IC50": 14},
      {"compound": "CC(=O)c1nn(CC(=O)N2[C@@H]3C[C@@H]3C[C@H]2C(=O)NCC2CC(F)(F)C2)c2ccc(OCc3ncccn3)cc12", "note": "[Example 62, (1R,3S,5R)-2-{2-[3-Acetyl-5-(pyrimidin-2-ylmethoxy)-indazol-1-yl]-acetyl}-2-aza-bicyclo[3.1.0] hexane-3-carboxylic acid (3,3-difluoro-cyclobutylmethyl)-amide]", "IC50": 162},
      {"compound": "CO[C@H]1[C@@H](C(=O)N[C@H](C)[C@H]2CC2(Cl)Cl)N(C(=O)Cn2nc(C(N)=O)c3ccccc32)C[C@@H]1F", "note": "[Example 59, 1-(2-{(2S,3S,4S)-2-[(R)-1-((R)-2,2-Dichloro-cyclopropyl)-ethylcarbamoyl]-4-fluoro-3-methoxy-pyrrolidin-1-yl}-2-oxo-ethyl)-1H-indazole-3-carboxylic acid amide]", "IC50": 14},
      {"compound": "CC(=O)c1nn(CC(=O)N2[C@@H]3C[C@@H]3C[C@H]2C(=O)NCC2CC2)c2ncccc12", "note": "[Example 1, (1R,3S,5R)-2-[2-(3-Acetyl-pyrazolo[3,4-b]pyridin-1-yl)-acetyl]-2-aza-bicyclo[3.1.0]hexane-3-carboxylic acid cyclopropylmethyl-amide]", "IC50": 4790},
      {"compound": "CC(=O)c1nn(CC(=O)N2[C@@H]3C[C@@H]3C[C@H]2C(=O)N[C@H](C)[C@H]2CC2(Cl)Cl)c2cnccc12", "note": "[Example 47, (1R,3S,5R)-2-[2-(3-Acetyl-pyrazolo[3,4-c]pyridin-1-yl)-acetyl]-2-aza-bicyclo[3.1.0] hexane-3-carboxylic acid [(R)-1-((R)-2,2-dichloro-cyclopropyl)-ethyl]-amide]", "IC50": 35},
      {"compound": "Cc1nccc2c(C(N)=O)nn(CC(=O)N3[C@@H]4C[C@@H]4C[C@H]3C(=O)N[C@H](C)[C@H]3CC3(Cl)Cl)c12", "note": "[Example 44, 1-(2-{(1R,3S,5R)-3-[(R)-1-((R)-2,2-Dichloro-cyclopropyl)-ethylcarbamoyl]-2-aza-bicyclo[3.1.0]hex-2-yl}-2-oxo-ethyl)-7-methyl-1H-pyrazolo[3,4-c]pyridine-3-carboxylic acid amide]", "IC50": 41},
      {"compound": "CC(=O)c1nn(CC(=O)N2[C@@H]3C[C@@H]3C[C@H]2C(=O)N[C@H](C)C2CCCCC2)c2cnccc12", "note": "[Example 6, (1R,3S,5R)-2-[2-(3-Acetyl-pyrazolo[3,4-c]pyridin-1-yl)-acetyl]-2-aza-bicyclo[3.1.0] hexane-3-carboxylic acid ((R)-1-cyclohexyl-ethyl)-amide]", "IC50": 71},
      {"compound": "CC(=O)c1nn(CC(=O)N2[C@@H]3C[C@@H]3C[C@H]2C(=O)NCC2CCCCC2(C)C)c2cnccc12", "note": "(single isomer, unassigned; dia 2) [Example 22]", "IC50": 1190},
      {"compound": "C[C@@H](NC(=O)[C@@H]1C[C@H]2C[C@H]2N1C(=O)Cn1nc(C(N)=O)c2ccccc21)C1CCCCC1", "note": "[Example 54, 1-{2-[(1R,3S,5R)-3-((R)-1-Cyclohexyl-ethylcarbamoyl)-2-aza-bicyclo[3.1.0]hex-2-yl]-2-oxo-ethyl}-1H-indazole-3-carboxylic acid amide]", "IC50": 64},
      {"compound": "CC(=O)c1nn(CC(=O)N2[C@@H]3C[C@@H]3C[C@H]2C(=O)NCC2CCC(C)(C)CC2)c2cnccc12", "note": "[Example 4, (1R,3S,5R)-2-[2-(3-Acetyl-pyrazolo[3,4-c]pyridin-1-yl)-acetyl]-2-aza-bicyclo[3.1.0] hexane-3-carboxylic acid (4,4-dimethyl-cyclohexylmethyl)-amide]", "IC50": 955},
      {"compound": "CC(=O)c1nn(CC(=O)N2[C@@H]3C[C@@H]3C[C@H]2C(=O)NCC2CCCCC2F)c2cnccc12", "note": "(mixture of isomers) [Example 16, (1R,3S,5R)-2-[2-(3-Acetyl-pyrazolo[3,4-c]pyridin-1-yl)-acetyl]-2-aza-bicyclo[3.1.0] hexane-3-carboxylic acid (2-fluoro-cyclohexylmethyl)-amide (mixture of 4 diastereomers)]", "IC50": 174},
      {"compound": "CC(=O)c1nn(CC(=O)N2[C@@H]3C[C@@H]3C[C@H]2C(=O)NCC2CCCC(C(F)(F)F)C2)c2cnccc12", "note": "(stereo partly drawn) [Example 14, (1R,3S,5R)-2-[2-(3-Acetyl-pyrazolo[3,4-c]pyridin-1-yl)-acetyl]-2-aza-bicyclo[3.1.0] hexane-3-carboxylic acid (3-trifluoromethyl-cyclohexylmethyl)-amide]", "IC50": 334},
      {"compound": "CC(=O)c1nn(CC(=O)N2[C@@H]3C[C@@H]3C[C@H]2C(=O)NC2(C3CCCCC3)CC2)c2cnccc12", "note": "[Example 15, (1R,3S,5R)-2-[2-(3-Acetyl-pyrazolo[3,4-c]pyridin-1-yl)-acetyl]-2-aza-bicyclo[3.1.0] hexane-3-carboxylic acid (1-cyclohexyl-cyclopropyl)-amide]", "IC50": 358},
      {"compound": "CO[C@H]1[C@@H](C(=O)NC[C@H]2CC2(Cl)Cl)N(C(=O)Cn2nc(C(N)=O)c3ccc(Cl)cc32)C[C@@H]1F", "note": "[Example 41, 6-Chloro-1-(2-{(2S,3S,4S)-2-[((R)-2,2-dichloro-cyclopropylmethyl)-carbamoyl]-4-fluoro-3-methoxy-pyrrolidin-1-yl}-2-oxo-ethyl)-1H-indazole-3-carboxylic acid amide]", "IC50": 51},
      {"compound": "NC(=O)c1nn(CC(=O)N2[C@@H]3C[C@@H]3C[C@H]2C(=O)NC[C@H]2CC2(Cl)Cl)c2cnccc12", "note": "[Example 72, 1-(2-{(1R,3S,5R)-3-[((R)-2,2-Dichloro-cyclopropylmethyl)-carbamoyl]-2-aza-bicyclo[3.1.0]hex-2-yl}-2-oxo-ethyl)-1H-pyrazolo[3,4-c]pyridine-3-carboxylic acid amide]", "IC50": 36},
      {"compound": "CC(=O)c1nn(CC(=O)N2[C@@H]3C[C@@H]3C[C@H]2C(=O)NCC2CCCC(C)C2)c2cnccc12", "note": "(single isomer, unassigned; dia 2) [Example 120]", "IC50": 70},
      {"compound": "CC(=O)c1nn(CC(=O)N2[C@@H]3C[C@@H]3C[C@H]2C(=O)NC[C@H]2CC2(Cl)Cl)c2ccc(OCc3nccs3)cc12", "note": "[Example 106, (1R,3S,5R)-2-{2-[3-Acetyl-5-(thiazol-2-ylmethoxy)-indazol-1-yl]-acetyl}-2-aza-bicyclo[3.1.0]hexane-3-carboxylic acid ((R)-2,2-dichloro-cyclopropylmethyl)-amide]", "IC50": 5},
      {"compound": "CC(=O)c1nn(CC(=O)N2[C@@H]3C[C@@H]3C[C@H]2C(=O)NC[C@H]2CC2(Cl)Cl)c2cnccc12", "note": "[Example 92, (1R,3S,5R)-2-[2-(3-Acetyl-pyrazolo[3,4-c]pyridin-1-yl)-acetyl]-2-aza-bicyclo[3.1.0] hexane-3-carboxylic acid ((R)-2,2-dichloro-cyclopropylmethyl)-amide]", "IC50": 24},
      {"compound": "CC1CCCC(CNC(=O)[C@@H]2C[C@H]3C[C@H]3N2C(=O)Cn2nc(C(N)=O)c3ccncc32)C1", "note": "(single isomer, unassigned; dia 3) [Example 117]", "IC50": 307}
    ]},
    {"target": "human factor D (Homo sapiens (Human), UniProt P00746)", "test": "biochemical", "format": "biochemical", "details": "IC50, Factor D inhibition data using Method 1; recombinant human factor D 10 nM, substrate Z-Lys-thiobenzyl, fluorescence", "description": "as §1, §2", "units": {"IC50": "nM"}, "values": [
      {"compound": "CC1C(CNC(=O)[C@@H]2C[C@H]3C[C@H]3N2C(=O)Cn2nc(C(N)=O)c3ccccc32)C1(Cl)Cl", "note": "(single isomer, unassigned; dia 1) [Example 77, 1-(2-{(1R,3S,5R)-3-[((1R,3S) or (1S,3R)-2,2-Dichloro-3-methyl-cyclopropylmethyl)-carbamoyl]-2-aza-bicyclo[3.1.0]hex-2-yl}-2-oxoethyl)-1H-indazole-3-carboxylic acid amide-Dia 1]", "IC50": 35}
    ]}
  ]
}
